Our source for the mutagenic call values is PubChem BioAssay AID1259407 (Chemical Carcinogenesis Research Information System (CCRIS), 2018).

In the data set the test system is CCRIS mutagenicity, Ames/micronucleus/aberration tests. Description: CCRIS mutagenicity studies.
Setting [1] is: Test System: AMES SALMONELLA TYPHIMURIUM, Strain/Indicator: TA98, Metabolic Activation: NONE, Method: STANDARD PLATE.
The mark [2] stands for this setting: Test System: AMES SALMONELLA TYPHIMURIUM, Strain/Indicator: TA98, Metabolic Activation: RAT, LIVER, S-9, AROCLOR 1254, Method: STANDARD PLATE.
[3] abbreviates: Test System: AMES SALMONELLA TYPHIMURIUM, Strain/Indicator: TA100, Metabolic Activation: NONE, Method: STANDARD PLATE.
Where [4] appears, read: Test System: AMES SALMONELLA TYPHIMURIUM, Strain/Indicator: TA100, Metabolic Activation: RAT, LIVER, S-9, AROCLOR 1254, Method: STANDARD PLATE.
Where [5] appears, read: Test System: AMES SALMONELLA TYPHIMURIUM, Strain/Indicator: TA1535, Metabolic Activation: NONE, Method: STANDARD PLATE.
[6] abbreviates: Test System: AMES SALMONELLA TYPHIMURIUM, Strain/Indicator: TA1535, Metabolic Activation: RAT, LIVER, S-9, AROCLOR 1254, Method: STANDARD PLATE.
Setting [7] is: Test System: AMES SALMONELLA TYPHIMURIUM, Strain/Indicator: TA1537, Metabolic Activation: NONE, Method: STANDARD PLATE.
The mark [8] stands for this setting: Test System: AMES SALMONELLA TYPHIMURIUM, Strain/Indicator: TA1537, Metabolic Activation: RAT, LIVER, S-9, AROCLOR 1254, Method: STANDARD PLATE.
The mark [9] stands for this setting: Test System: AMES SALMONELLA TYPHIMURIUM, Strain/Indicator: TA98, Metabolic Activation: NONE, Method: PREINCUBATION
Where [10] appears, read: Test System: AMES SALMONELLA TYPHIMURIUM, Strain/Indicator: TA100, Metabolic Activation: NONE, Method: PREINCUBATION
Where [11] appears, read: Test System: AMES SALMONELLA TYPHIMURIUM, Strain/Indicator: TA1535, Metabolic Activation: NONE, Method: PREINCUBATION

The source made the active and inactive calls. How the calls were made is not given here. Where a SMILES comes first, the peptide text is derived from it.

Consider `NCCCC[C@H](NC(=O)[C@H](Cc1c[nH]c2ccccc12)NC(=O)[C@@H](N)CCCCN)C(=O)O` (H-Lys-Trp-Lys-OH), for which the mutagenic call is “inactive; negative” under setting [1]; “inactive; negative” under setting [2]; “inactive; negative” under setting [3]; “inactive; negative” under setting [4]; “inactive; negative” under setting [5]; “inactive; negative” under setting [6]. Moreover, the mutagenic call by setting is: under setting [7], “inactive; negative”; under setting [8], “inactive; negative”.
Turning to `C=CCC1(C(C)C#CCC)C(=O)N=C(O)N(C)C1=O` (stereo not given), the mutagenic call runs as follows: (Test System: AMES SALMONELLA TYPHIMURIUM, Strain/Indicator: TA97, Metabolic Activation: HAMSTER, LIVER, S-9, AROCLOR 1254 (10 OR 30%), Method: PREINCUBATION) “inactive; negative”; (Test System: AMES SALMONELLA TYPHIMURIUM, Strain/Indicator: TA97, Metabolic Activation: NONE, Method: PREINCUBATION) “inactive; negative”; (Test System: AMES SALMONELLA TYPHIMURIUM, Strain/Indicator: TA97, Metabolic Activation: RAT, LIVER, S-9, AROCLOR 1254 (10 OR 30%), Method: PREINCUBATION) “inactive; negative”; (Test System: AMES SALMONELLA TYPHIMURIUM, Strain/Indicator: TA98, Metabolic Activation: HAMSTER, LIVER, S-9, AROCLOR 1254 (10 OR 30%), Method: PREINCUBATION) “inactive; negative”; under setting [9], “inactive; negative”; (Test System: AMES SALMONELLA TYPHIMURIUM, Strain/Indicator: TA98, Metabolic Activation: RAT, LIVER, S-9, AROCLOR 1254 (10 OR 30%), Method: PREINCUBATION) “inactive; negative”. The mutagenic call runs as follows: (Test System: AMES SALMONELLA TYPHIMURIUM, Strain/Indicator: TA100, Metabolic Activation: HAMSTER, LIVER, S-9, AROCLOR 1254 (10 OR 30%), Method: PREINCUBATION) “inactive; negative”; under setting [10], “inactive; negative”; (Test System: AMES SALMONELLA TYPHIMURIUM, Strain/Indicator: TA100, Metabolic Activation: RAT, LIVER, S-9, AROCLOR 1254 (10 OR 30%), Method: PREINCUBATION) “inactive; negative”; (Test System: AMES SALMONELLA TYPHIMURIUM, Strain/Indicator: TA1535, Metabolic Activation: HAMSTER, LIVER, S-9, AROCLOR 1254 (10 OR 30%), Method: PREINCUBATION) “inactive; negative”; under setting [11], “inactive; negative”; (Test System: AMES SALMONELLA TYPHIMURIUM, Strain/Indicator: TA1535, Metabolic Activation: RAT, LIVER, S-9, AROCLOR 1254 (10 OR 30%), Method: PREINCUBATION) “inactive; negative”.
On to `C[C@]12C=CC3=C4CCC(=O)C=C4CC[C@H]3[C@@H]1CC[C@H]2O`, for which the mutagenic call is “inactive; negative” under setting [1]; “inactive; negative” under setting [2]; “inactive; negative” under setting [3]; “inactive; negative” under setting [4]; “inactive; negative” under setting [5]; “inactive; negative” under setting [6]. In addition, the mutagenic call runs as follows: under setting [7], “inactive; negative”; under setting [8], “inactive; negative”; (Test System: AMES SALMONELLA TYPHIMURIUM, Strain/Indicator: TA1538, Metabolic Activation: NONE, Method: STANDARD PLATE) “inactive; negative”; (Test System: AMES SALMONELLA TYPHIMURIUM, Strain/Indicator: TA1538, Metabolic Activation: RAT, LIVER, S-9, AROCLOR 1254, Method: STANDARD PLATE) “inactive; negative”; (Test System: CHO/HGPRT, Strain/Indicator: CHO-K1-BH4, Metabolic Activation: NONE, Method: STANDARD PLATE) “inactive; negative”; (Test System: CHO/HGPRT, Strain/Indicator: CHO-K1-BH4, Metabolic Activation: RAT, LIVER, S-9, AROCLOR 1254, Method: STANDARD PLATE) “inactive; negative”.
For the molecule `OC1C2OC2=C2C=c3ccc4cccc5ccc(c3c54)C2C1O` (stereo not given), where the note is “Test System: CHINESE HAMSTER V-79, Strain/Indicator: V-79/8-AZAGUANINE, Metabolic Activation: NONE, Method: STANDARD PLATE”, the mutagenic call is “active; positive”.
As for `NC(N)=NC(N)=NCCc1ccccc1`, the mutagenic call is “inactive; negative” (End Point: IN VITRO CHROMOSOMAL ABERRATIONS, Test System: CHO CELLS, Metabolic Activation: NONE); “inactive; negative” (End Point: IN VITRO CHROMOSOMAL ABERRATIONS, Test System: CHO CELLS, Metabolic Activation: RAT, LIVER, S-9, PHENOBARBITAL AND BETA-NAPHTHOFLAVONE); “inactive; negative” (Test System: AMES SALMONELLA TYPHIMURIUM, Strain/Indicator: TA98, Metabolic Activation: HAMSTER, LIVER, S-9, AROCLOR 1254 (10%), Method: PREINCUBATION); “inactive; negative” under setting [9]; “inactive; negative” (Test System: AMES SALMONELLA TYPHIMURIUM, Strain/Indicator: TA98, Metabolic Activation: RAT, LIVER, S-9, AROCLOR 1254 (10%), Method: PREINCUBATION); “inactive; negative” (Test System: AMES SALMONELLA TYPHIMURIUM, Strain/Indicator: TA100, Metabolic Activation: HAMSTER, LIVER, S-9, AROCLOR 1254 (10%), Method: PREINCUBATION). Further, the mutagenic call runs as follows: under setting [10], “inactive; negative”; (Test System: AMES SALMONELLA TYPHIMURIUM, Strain/Indicator: TA100, Metabolic Activation: RAT, LIVER, S-9, AROCLOR 1254 (10%), Method: PREINCUBATION) “inactive; negative”; (Test System: AMES SALMONELLA TYPHIMURIUM, Strain/Indicator: TA1535, Metabolic Activation: HAMSTER, LIVER, S-9, AROCLOR 1254 (10%), Method: PREINCUBATION) “inactive; negative”; under setting [11], “inactive; negative”; (Test System: AMES SALMONELLA TYPHIMURIUM, Strain/Indicator: TA1535, Metabolic Activation: RAT, LIVER, S-9, AROCLOR 1254 (10%), Method: PREINCUBATION) “inactive; negative”; (Test System: AMES SALMONELLA TYPHIMURIUM, Strain/Indicator: TA1537, Metabolic Activation: HAMSTER, LIVER, S-9, AROCLOR 1254 (10%), Method: PREINCUBATION) “inactive; negative”. Moreover, the mutagenic call (Test System: AMES SALMONELLA TYPHIMURIUM, Strain/Indicator: TA1537, Metabolic Activation: NONE, Method: PREINCUBATION) was “inactive; negative” and the mutagenic call (Test System: AMES SALMONELLA TYPHIMURIUM, Strain/Indicator: TA1537, Metabolic Activation: RAT, LIVER, S-9, AROCLOR 1254 (10%), Method: PREINCUBATION) was “inactive; negative”.
In the case of `O=[N+]([O-])c1ccc2ccc3ccc([N+](=O)[O-])cc3c2c1`, the mutagenic call was “active; positive” (Test System: AMES SALMONELLA TYPHIMURIUM, Strain/Indicator: TA98(1,8-DNP6), Metabolic Activation: NONE, Method: STANDARD PLATE); “active; positive” (Test System: AMES SALMONELLA TYPHIMURIUM, Strain/Indicator: TA98(NR), Metabolic Activation: NONE, Method: STANDARD PLATE); “active; positive” under setting [1]; “active; positive” under setting [3]; “active; positive” (Test System: AMES SALMONELLA TYPHIMURIUM, Strain/Indicator: YG1021, Metabolic Activation: NONE, Method: STANDARD PLATE); “active; positive” (Test System: AMES SALMONELLA TYPHIMURIUM, Strain/Indicator: YG1024, Metabolic Activation: NONE, Method: STANDARD PLATE). In addition, the mutagenic call was “active; positive” (Test System: AMES SALMONELLA TYPHIMURIUM, Strain/Indicator: YG1026, Metabolic Activation: NONE, Method: STANDARD PLATE) and “active; positive” (Test System: AMES SALMONELLA TYPHIMURIUM, Strain/Indicator: YG1029, Metabolic Activation: NONE, Method: STANDARD PLATE).
